Assay results as given in EP2260303B1, “BIOMARKER FOR THE DIAGNOSIS OF A BRAIN TUMOR” (Meyer, Helmut E., priority 2008, dated 2009).
Values belong to the compound of their own block, whether it stands above or below them.

Key:
[1] = test system: Glioblastomzelllinie A172; assay: Chemosensitivity (dose-response curves, EC50) of A172 cell lines with modified biomarker expression; assay type: cell-based; conditions: Homo sapiens
Excerpt: (§1) Alle erfindungsgemäßen Biomarker (SEQ ID No. 1 - 24), die in den differentiellen Untersuchungen identifiziert wurden, sind potentiell in der Lage an der Vermittlung der Chemosensitivität dieser Gliome beteiligt zu sein. Durch den Einsatz ausgewählter Zytostatika mit unterschiedlichen Wirkmechanismen kann überprüft werden, ob die erfindungsgemäßen Biomarker (SEQ ID No. 1 - 24) direkt mit dem Reaktionsmechanismus der in der Therapie üblichen Zytostatika wechselwirken. Hierzu wurden stabile Zelllinien hergestellt und die erfindungsgemäßen Biomarker verstärkt exprimiert (Überexpression) und vermindert (knock-down) exprimiert (siehe J. Sambrook, E.F. Fritsch, T. Maniatis (1989), Molecular cloning: A laboratory manual, 2nd Edition, Cold Spring Habor Laboratory Press, Cold Spring Habor, USA oder Ausubel, "Current Protocols in Molecular Biology", Green Publishing Associates and Wiley Interscience, N.Y. (1989)). Eingesetzte Zytostatika: Carmustin und Vincristin, zwei Substanzen aus dem in der Therapie üblichen PCV Polychemotherapieschema, und Temozolomid, einem in der Therapie […] maligner Gliome neueren Wirkstoff. Zur Auswertung eines Effekts wurden Dosis-Wirkungs-Kurven und deren Lage zueinander und der korrespondierende EC50 Wert (Effektkonzentration; EC-50-Wert besagt, dass bei dieser Konzentration des Stoffes die Hälfte der Versuchsorganismen Wirkungen zeigt) berechnet.

[2] = test system: Glioblastomzelllinie T98G; assay: Chemosensitivity (dose-response curves, EC50) of T98G cell lines with modified biomarker expression; assay type: cell-based; conditions: Homo sapiens
Excerpt: as §1

[3] = test system: stabilen Zelllinien aus A172 und T98G; assay: Comparison of the response of the stable A172 and T98G cell lines to cytostatics (summary in words); assay type: cell-based, human; conditions: versus control; for Verschiebung der Konzentrationen (Dosis-Wirkungs-Kurven): both cell lines
Excerpt: as §1
Eine veränderte Reaktion auf eine Behandlung mit Carmustin wurde in allen stabilen Zelllinien aus A172 sowie aus T98G beobachtet.
Einen ähnlichen Effekt zeigte die Behandlung der Zelllinien mit Vincristin. […] Dieses Verhalten wurde ebenfalls in den beiden Zelllinien beobachtet.

EC50 ([1]; A 172, A172 knock-down of ANXA1, treatment with Carmustin): 95.6 µM
EC50 ([1]; A 172, A172 knock-down of CLIC1, treatment with Carmustin): 171 µM
EC50 ([1]; A 172, A172 knock-down of PRDX1, treatment with Carmustin): 107 µM
EC50 ([1]; A 172, A172 knock-down of VIL2, treatment with Carmustin): 90.8 µM
EC50 ([1]; A 172, A172 knock-down series, control cell line (Kontrolle), treatment with Carmustin): 94.4 µM
EC50 ([1]; A 172, A172 overexpressing ANXA1, treatment with Carmustin): 88.3 µM
EC50 ([1]; A 172, A172 overexpressing CLIC1, treatment with Carmustin): 105 µM
EC50 ([1]; A 172, A172 overexpressing PRDX1, treatment with Carmustin): 35.7 µM
EC50 ([1]; A 172, A172 overexpressing VIL2, treatment with Carmustin): 106 µM
EC50 ([1]; A 172, A172 overexpression series, control cell line (Kontrolle), treatment with Carmustin): 7.87 µM
EC50 ([2]; T98G knock-down of ANXA1, treatment with Carmustin): 121 µM
EC50 ([2]; T98G knock-down of CLIC1, treatment with Carmustin): 85.5 µM
EC50 ([2]; T98G knock-down of PRDX1, treatment with Carmustin): 118 µM
EC50 ([2]; T98G knock-down of VIL2, treatment with Carmustin): 159 µM
EC50 ([2]; T98G knock-down series, control cell line (Kontrolle), treatment with Carmustin): 152 µM
EC50 ([2]; T98G overexpressing ANXA1, treatment with Carmustin): 207 µM
EC50 ([2]; T98G overexpressing CLIC1, treatment with Carmustin): 346 µM
EC50 ([2]; T98G overexpressing PRDX1, treatment with Carmustin): 158 µM
EC50 ([2]; T98G overexpressing VIL2, treatment with Carmustin): 223 µM
EC50 ([2]; T98G overexpression series, control cell line (Kontrolle), treatment with Carmustin): 64.8 µM
SMILES: O=NN(CCCl)C(=O)NCCCl [Carmustin]

EC50 ([1]; A 172, A172 knock-down of ANXA1, treatment with Temozolomid): 113 µM
EC50 ([1]; A 172, A172 knock-down of CLIC1, treatment with Temozolomid): 150 µM
EC50 ([1]; A 172, A172 knock-down of PRDX1, treatment with Temozolomid): 118 µM
EC50 ([1]; A 172, A172 knock-down of VIL2, treatment with Temozolomid): 115 µM
EC50 ([1]; A 172, A172 knock-down series, control cell line (Kontrolle), treatment with Temozolomid): 41 µM
EC50 ([1]; A 172, A172 overexpressing ANXA1, treatment with Temozolomid): 123 µM
EC50 ([1]; A 172, A172 overexpressing CLIC1, treatment with Temozolomid): 82.6 µM
EC50 ([1]; A 172, A172 overexpressing PRDX1, treatment with Temozolomid): 26.4 µM
EC50 ([1]; A 172, A172 overexpressing VIL2, treatment with Temozolomid): 83.1 µM
EC50 ([1]; A 172, A172 overexpression series, control cell line (Kontrolle), treatment with Temozolomid): 165 µM
EC50 ([2]; T98G knock-down of ANXA1, treatment with Temozolomid): 386 µM
EC50 ([2]; T98G knock-down of CLIC1, treatment with Temozolomid): 335 µM
EC50 ([2]; T98G knock-down of PRDX1, treatment with Temozolomid): 383 µM
EC50 ([2]; T98G knock-down of VIL2, treatment with Temozolomid): 348 µM
EC50 ([2]; T98G knock-down series, control cell line (Kontrolle), treatment with Temozolomid): 327 µM
EC50 ([2]; T98G overexpressing ANXA1, treatment with Temozolomid): 409 µM
EC50 ([2]; T98G overexpressing CLIC1, treatment with Temozolomid): 334 µM
EC50 ([2]; T98G overexpressing PRDX1, treatment with Temozolomid): 321 µM
EC50 ([2]; T98G overexpressing VIL2, treatment with Temozolomid): 396 µM
EC50 ([2]; T98G overexpression series, control cell line (Kontrolle), treatment with Temozolomid): 394 µM
SMILES: Cn1nnc2c(C(N)=O)ncn2c1=O [Temozolomid]
Sensitivität ([3]; biomarkers overexpressed, stable cell lines from A172 and T98G): erhöhte Sensitivität
Sensitivität ([3]; knock-down cell lines from A172 and T98G): umgekehrter Effekt

EC50 ([1]; A 172, A172 knock-down of ANXA1, treatment with Vincristin): 0.037 µM
EC50 ([1]; A 172, A172 knock-down of CLIC1, treatment with Vincristin): 0.0642 µM
EC50 ([1]; A 172, A172 knock-down of PRDX1, treatment with Vincristin): 0.0527 µM
EC50 ([1]; A 172, A172 knock-down of VIL2, treatment with Vincristin): 0.0202 µM
EC50 ([1]; A 172, A172 knock-down series, control cell line (Kontrolle), treatment with Vincristin): 0.0322 µM
EC50 ([1]; A 172, A172 overexpressing ANXA1, treatment with Vincristin): 0.0153 µM
EC50 ([1]; A 172, A172 overexpressing CLIC1, treatment with Vincristin): 0.0193 µM
EC50 ([1]; A 172, A172 overexpressing PRDX1, treatment with Vincristin): 0.0127 µM
EC50 ([1]; A 172, A172 overexpressing VIL2, treatment with Vincristin): 0.0033 µM
EC50 ([1]; A 172, A172 overexpression series, control cell line (Kontrolle), treatment with Vincristin): 0.0152 µM
EC50 ([2]; T98G knock-down of ANXA1, treatment with Vincristin): 0.0191 µM
EC50 ([2]; T98G knock-down of CLIC1, treatment with Vincristin): 0.0269 µM
EC50 ([2]; T98G knock-down of PRDX1, treatment with Vincristin): 0.0206 µM
EC50 ([2]; T98G knock-down of VIL2, treatment with Vincristin): 0.0358 µM
EC50 ([2]; T98G knock-down series, control cell line (Kontrolle), treatment with Vincristin): 0.01 µM
EC50 ([2]; T98G overexpressing ANXA1, treatment with Vincristin): 0.0042 µM
EC50 ([2]; T98G overexpressing CLIC1, treatment with Vincristin): 0.0037 µM
EC50 ([2]; T98G overexpressing PRDX1, treatment with Vincristin): 0.0096 µM
EC50 ([2]; T98G overexpressing VIL2, treatment with Vincristin): 0.0241 µM
EC50 ([2]; T98G overexpression series, control cell line (Kontrolle), treatment with Vincristin): 0.0324 µM
SMILES: CC[C@]1(O)C[C@H]2CN(CCc3c([nH]c4ccccc34)[C@@](C(=O)OC)(c3cc4c(cc3OC)N(C=O)[C@H]3[C@@](O)(C(=O)OC)[C@H](OC(C)=O)[C@]5(CC)C=CCN6CC[C@]43[C@@H]65)C2)C1 [Vincristin]
Verschiebung der Konzentrationen (Dosis-Wirkungs-Kurven) ([3]; cell lines overexpressing the biomarkers): Verschiebung zu niedrigeren Konzentrationen
Verschiebung der Konzentrationen (Dosis-Wirkungs-Kurven) ([3]; knock-down of the biomarkers): höhere Konzentrationen notwendig
